From paper PMC11586411 (Translational Psychiatry, 2023)

Molecular target: T1, kappa-opioid receptor (KOP) (Homo sapiens, UniProt P41145)
T1 construct: gene OPRK1
Experiment: FLIM in live cells: blocks the dynorphin A-induced change of KOP-eGFP lifetime
Format: cell-based

T1 sequence (P41145 whole entry): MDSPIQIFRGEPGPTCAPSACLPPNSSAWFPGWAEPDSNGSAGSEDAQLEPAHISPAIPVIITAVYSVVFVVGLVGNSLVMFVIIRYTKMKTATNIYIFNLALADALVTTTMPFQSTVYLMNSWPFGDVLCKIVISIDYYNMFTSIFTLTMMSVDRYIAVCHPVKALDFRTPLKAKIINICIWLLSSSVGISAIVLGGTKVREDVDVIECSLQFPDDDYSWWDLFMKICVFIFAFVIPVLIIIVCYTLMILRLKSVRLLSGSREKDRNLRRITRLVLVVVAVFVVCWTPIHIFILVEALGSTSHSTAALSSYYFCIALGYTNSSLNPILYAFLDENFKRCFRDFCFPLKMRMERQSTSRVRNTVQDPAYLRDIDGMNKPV

## CC(C)[C@@H](CN1CC[C@@](C)(c2cccc(O)c2)[C@@H](C)C1)NC(=O)[C@H]1Cc2ccc(O)cc2CN1 [JDTic]
  FLIM in live cells: blocks the dynorphin A-induced change of KOP-eGFP lifetime: both NTX and the KOP-selective antagonist JDTic blocked this effect, suggesting that DynA binds to KOP-eGFP
